Source: publication PMC10552532, “Evaluation of anti-cancer effects of carnosine and melittin-loaded niosomes in MCF-7 and MDA-MB-231 breast cancer cells” (Frontiers in Pharmacology, 2023)

Assays:
[1] = In vitro drug release from dialysis bag; format: physicochemical; details: first 6 h, pH 5.4, 37°C
Method: A dialysis bag (MWCO = 12 kDa) was used to compare 2 mL of free drugs, Car-NIO and Mel-NIO for drug release (in vitro). This bag was placed in a phosphate buffered saline (PBS) solution (50 mL, 1X, pH = 5.4) with slow stirring (50 rpm) at 37°C. At certain intervals, a portion of the PBS solution was removed and replaced with a new aliquot.

MCF-7 cells [2] = assay: MTT cytotoxicity assay; format: cell-based; details: Homo sapiens, MCF7, MCF-7, 48 h, read-out: IC50 (viability)
Method: (§1) The 3-(4,5-dimethylthiazol-2-yl)-2,5-diphenyl-2H-tetrazolium bromide (MTT) assay is a colorimetric method that uses the transformation of yellow MTT into purple formazan. The following procedures were carried out in a clean environment using MTT Assay Kit (Cell Proliferation) (catalog number: ab211091, Abcam, United Kingdom), with the use of a Laminar flow cabinet meeting biosafety standard II (Baker, SG403INT, Sanford, ME, United States), l0^4 cells/well were subjected to varying doses of Car-NIO (5, 10, 25, 50, and 100 μM) ([Tehrani et al., 2018]) and Mel-NIO (5, 10, 25, 50, and 100 μM) ([Yaacoub et al., 2021]) and olaparib (5, 10, 25, 50, and 100 μM) ([Ashmawy et al., 2017]). After 48 h, we added 2.5 μg/mL of MTT to each well and incubated the plates at 37°C for another 4 h. After the formation of formazan crystals, 10% sodium dodecyl sulfate (200 μL/well) was used to dissolve the crystals. We measured the absorbance at 595 nm, and a positive control that causes 100% mortality under the same conditions was utilized. Using the following formula, the change in viability was given as a percentage was calculated: Cytotoxicity %=Extract reading/Negative control reading x100
(§2) Viability % = 100- Cytotoxicity%, The impact of each treatment is measured by its IC50 (the concentration at which 50% of the viability is inhibited).

MDA-MB-231 cells [3] = assay: MTT cytotoxicity assay; format: cell-based; details: Homo sapiens, MDA-MB-231, 48 h, read-out: IC50 (viability)
Method: as §1, §2

MCF-7 cells [4] = assay: Quantitative RT-PCR of marker genes; format: cell-based; details: MCF-7, vs untreated cancer cells
From the text: (§3) The cells’ total RNA was extracted with the help of the RNA Mini Kit from Ambion by Life Technologies by Thermo Scientific (catalog number: 12183018A). To ensure the integrity of the RNA samples, we used a NanoDrop® ND-1000 Spectrophotometer from NanoDrop Technologies in Wilmington, Delaware, United States A High Capacity cDNA Reverse Transcription Kit (catalog number: 4374966) from Thermo Scientific was then used to amplify the cDNA. The Maxima SYBR Green qPCR Master Mix (2X) kit from Thermo Scientific, (catalog number: K0251), was used for real-time PCR amplification ([Shehata et al., 2018]). The housekeeping GADPH (for mRNA) or U6 (for miRNA) were used as a standard. The 2^−∆∆ct formula was used to calculate the levels of target gene expression ([Livak and Schmittgen, 2001]). Table 1 contains the sequences of the desired gene primers.

MDA-MB-231 cells [5] = assay: Quantitative RT-PCR of marker genes; format: cell-based; details: MDA-MB-231, vs untreated cancer cells
From the text: as §3

MCF-7 cells [6] = assay: Lipid peroxidation (MDA) detection; format: cell-based; details: MCF-7, 48 h at IC50 concentration, vs untreated cancer cells
Method: (§4) For this assay, the cells (2 × 10^6 cells/mL) were seeded onto 96-well culture plates to determine lipid peroxidation levels. Following a 48-h incubation with Car-NIO (48.83, 51.4 μM), Mel-NIO (21.23, 43.65 μM), and olaparib (23.31, 32.55 μM), cells were collected and washed twice with phosphate-buffered saline. The cells were harvested with a sonicator probe (VCX-130 W, Newtown, United States) on ice, and then disrupted by ultra-sonication for 5 s. Following the manufacturer’s guidelines for best results, the malondialdehyde (MDA) was detected in the cell extract using the MDA test kit (catalog number: ab287797, Abcam, United Kingdom). The microplate reader was used to determine the MDA concentration at a wavelength of 532 nm (Tecan, Mannedorf, Switzerland) ([Gérard-Monnier et al., 1998]).

MDA-MB-231 cells [7] = assay: Lipid peroxidation (MDA) detection; format: cell-based; details: MDA-MB-231, 48 h at IC50 concentration, vs untreated cancer cells
Method: as §4

MCF-7 cells [8] = assay: Cell cycle distribution by flow cytometry (propidium iodide); format: cell-based; details: MCF-7, 48 h at IC50 concentration
Method: (§5) Overnight, the cells were cultured in 100-mm plates at a density of 2 × 10^6 cells/mL per well using fresh culture media. Treatment with Car-NIO (48.83, 51.4 μM), Mel-NIO (21.23, 43.65 μM), and olaparib (23.31, 32.55 μM) for 48 h began the next day. After harvesting, the cells were fixed in 70% ethanol at […] for 12 h. After that, the cells were exposed to RNase (10 mg/mL) and propidium iodide (50 μg/mL) for 30 min. The cell cycle distribution was analyzed using flow cytometry, and the data were analyzed using FlowJo (TreeStar, Ashland, OR, United States) ([Mei et al., 2019]).

MDA-MB-231 cells [9] = assay: as above; format: cell-based; details: MDA-MB-231, 48 h at IC50 concentration
Method: as §5

[10] = tested on: human epidermal growth factor receptor 2-negative, metastatic breast cancer and a hereditary BRCA mutation; design: method as in Tutt et al., 2021; details: olaparib monotherapy rather than the standard treatment; ref Tutt et al., 2021; cited from earlier work

NCCC(=O)N[C@@H](Cc1cnc[nH]1)C(=O)O [carnosine, β-alanyl-L-histidine]
drug release [1]: 43%

O=C(c1cc(Cc2n[nH]c(=O)c3ccccc23)ccc1F)N1CCN(C(=O)C2CC2)CC1 [olaparib]
IC50 (MCF-7 cells [2]): 23.3 µM
IC50 (MDA-MB-231 cells [3]): 32.5 µM
expression level of miRNA-183 (MCF-7 cells [4]; U6 as standard): significant downregulation
expression level of Bcl2 (MCF-7 cells [4]; relative to GADPH): significant downregulation
expression level of FOXO3 (MCF-7 cells [4]; relative to GADPH): significantly upregulated
expression level of PARP 1 (MCF-7 cells [4]; relative to GADPH): significant downregulation
expression level of PDCD4 (MCF-7 cells [4]; relative to GADPH): significantly upregulated
mRNA expression of Bax (MCF-7 cells [4]; relative to GADPH): significant upregulation
mRNA expression of P53 (MCF-7 cells [4]; relative to GADPH): significant upregulation
mRNA expression of caspase-3 (MCF-7 cells [4]; relative to GADPH): significant upregulation
mRNA expression of caspase-9 (MCF-7 cells [4]; relative to GADPH): significant upregulation
expression level of miRNA-183 (MDA-MB-231 cells [5]; U6 as standard): significant downregulation
expression level of Bcl2 (MDA-MB-231 cells [5]; relative to GADPH): significant downregulation
expression level of FOXO3 (MDA-MB-231 cells [5]; relative to GADPH): significantly upregulated
expression level of PARP 1 (MDA-MB-231 cells [5]; relative to GADPH): significant downregulation
expression level of PDCD4 (MDA-MB-231 cells [5]; relative to GADPH): significantly upregulated
mRNA expression of Bax (MDA-MB-231 cells [5]; relative to GADPH): significant upregulation
mRNA expression of P53 (MDA-MB-231 cells [5]; relative to GADPH): significant upregulation
mRNA expression of caspase-3 (MDA-MB-231 cells [5]; relative to GADPH): significant upregulation
mRNA expression of caspase-9 (MDA-MB-231 cells [5]; relative to GADPH): significant upregulation
MDA level (MCF-7 cells [6]): significant downregulation
MDA level (MDA-MB-231 cells [7]): significant downregulation
cells in G0/1 phase (MCF-7 cells [8]): 63.2%
cells in S phase (MCF-7 cells [8]): 8.6%
cells in G0/1 phase (MDA-MB-231 cells [9]): 83.0%
cells in S phase (MDA-MB-231 cells [9]): 3.2%
extension of median progression-free survival [10]: 2.8 months

melittin
drug release [1]: 72.3%
